pIC50: −log10 of the molar value. Like-named read-outs stand apart in the source and are kept apart here.

Consider 18 molecules from PMC11017388 (ACS Medicinal Chemistry Letters, 2024).

The target in series [1] is T1, PKa (Homo sapiens, UniProt P03952). The settings on record: competitive, reversible inhibitor; cited from earlier work.
Series [2] can be described thus: Stability in DMSO and aqueous media (LCMS observation). In kind it is physicochemical. The settings on record: protodeborylation observed by LCMS.
Series [3] addresses T2, FXIIa (Homo sapiens, UniProt P00748).
T2 sequence (P00748 373-615 limits assumed): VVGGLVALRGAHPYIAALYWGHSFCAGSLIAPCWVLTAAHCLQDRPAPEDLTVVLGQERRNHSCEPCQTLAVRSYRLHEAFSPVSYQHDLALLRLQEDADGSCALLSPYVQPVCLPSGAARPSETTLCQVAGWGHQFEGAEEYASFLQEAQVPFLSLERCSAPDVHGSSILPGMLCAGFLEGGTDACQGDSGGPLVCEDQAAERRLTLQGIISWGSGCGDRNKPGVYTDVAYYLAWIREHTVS
In words: Isolated enzyme potency against FXIIa, preincubation time course. The settings on record: for pIC50: read-out: FXIIa IC50; for Inhibition of FXIIa activity (in words): time course experiments.
Protocol: (§1) Isolated enzyme potency was determined against PKa and FXIIa, using FXIIa as a test for the selective binding interaction with PKa.

Series [4] addresses plasma kallikrein (PKa) (Homo sapiens, UniProt P03952). Put plainly: Isolated enzyme potency against PKa, IC50 after enzyme/inhibitor preincubation time course. The following applies: for Inhibition of PKa (in words): preincubation time course.
Protocol: as §1
A short description of series [5]: NMR stability study of pinacol boronate in PBS buffer. In kind it is physicochemical. The following applies: pH7.4 phosphate buffer (D2O). On the procedure: Molecular docking experiments were conducted to visualize the potential binding mode of 20. However, it soon became apparent that the pinacol boronate group was too large to fit into the Ser195 subpocket. Having previously experienced hydrolysis of the pinacol boronate during purification, model substrate 17b was used to study the stability of the pinacol boronate in PBS buffer by NMR (see Supporting Information Figure S1).

The target of series [6] is FXIa (Homo sapiens, UniProt P03951). Put plainly: Time-dependent potency determination against FXIa. In kind it is biochemical. The source says: S5: Pharmacology: Material and Methods :
Series [7] addresses Plasmin (Homo sapiens, UniProt P00747). In words: Time-dependent potency determination against plasmin.
Protocol: (§2) Time-dependent potency determination was carried out against FXIa, thrombin, trypsin, and plasmin to further evaluate the selectivity of compounds (Table 3).
In series [8] the target is Thrombin (Homo sapiens, UniProt P00734). In words: Time-dependent potency determination against thrombin.
Protocol: as §2
Series [9] deals with T1, PKa. In words: Compound dissociation assay (jump dilution). The following applies: 62.5-fold dilution after 10 min preincubation; monitored over 600 s with fluorogenic substrate.
Series [10] concerns Trypsin. Put plainly: Time-dependent potency determination against trypsin. The settings on record: read-out: Trypsin IC50.
Protocol: as §2
Series [11] deals with phosophodiesterase 4 (PDE4) enzyme. Further details: method as in PMID 19303290. The settings on record: read-out: potency; cited from earlier work.
Details of series [12]: method as in PMID 34282650. The settings on record: 150 mg daily dose, clinical studies; cited from earlier work.
Where [13] appears, read: read-out: PKa IC50, 5 min preincubation.
Where [14] appears, read: read-out: PKa IC50, 60 min preincubation.
Where [15] appears, read: Plasmin IC50, 1 min preincubation.
The mark [16] stands for this setting: Plasmin IC50, 10 min preincubation.
The mark [17] stands for this setting: Plasmin IC50, 60 min preincubation.
Where [18] appears, read: read-out: Thrombin IC50, 10 min preincubation.
[19] abbreviates: read-out: Thrombin IC50, 60 min preincubation.
[20] abbreviates: read-out: PKa IC50, 1 min preincubation.
Where [21] appears, read: read-out: PKa IC50, 10 min preincubation.

T1 sequence (P03952 391-638 limits assumed): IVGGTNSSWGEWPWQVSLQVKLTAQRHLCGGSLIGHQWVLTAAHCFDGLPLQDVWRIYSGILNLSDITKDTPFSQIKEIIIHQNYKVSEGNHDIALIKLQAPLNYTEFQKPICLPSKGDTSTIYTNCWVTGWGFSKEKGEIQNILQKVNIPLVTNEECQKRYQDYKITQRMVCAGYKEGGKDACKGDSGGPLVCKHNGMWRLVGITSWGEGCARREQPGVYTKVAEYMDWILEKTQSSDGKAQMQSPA
T1 sequence (P03952 20-390 partner limits assumed): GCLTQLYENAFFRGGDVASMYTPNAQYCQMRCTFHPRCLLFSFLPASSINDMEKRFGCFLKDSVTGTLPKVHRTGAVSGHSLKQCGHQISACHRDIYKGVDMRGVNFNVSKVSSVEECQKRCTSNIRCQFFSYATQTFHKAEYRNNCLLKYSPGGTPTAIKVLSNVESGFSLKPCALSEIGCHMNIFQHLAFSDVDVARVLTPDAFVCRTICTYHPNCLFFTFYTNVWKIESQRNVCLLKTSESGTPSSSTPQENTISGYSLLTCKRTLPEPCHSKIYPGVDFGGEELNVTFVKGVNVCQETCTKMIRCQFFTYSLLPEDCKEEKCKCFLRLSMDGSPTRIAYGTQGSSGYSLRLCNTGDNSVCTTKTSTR
Chain of plasma kallikrein (PKa) (P03952 391-638 limits assumed): as the sequence (P03952 391-638 limits assumed) above
Chain of plasma kallikrein (PKa) (P03952 20-390 partner limits assumed): as the sequence (P03952 20-390 partner limits assumed) above
Chain of FXIa (P03951 388-625 limits assumed): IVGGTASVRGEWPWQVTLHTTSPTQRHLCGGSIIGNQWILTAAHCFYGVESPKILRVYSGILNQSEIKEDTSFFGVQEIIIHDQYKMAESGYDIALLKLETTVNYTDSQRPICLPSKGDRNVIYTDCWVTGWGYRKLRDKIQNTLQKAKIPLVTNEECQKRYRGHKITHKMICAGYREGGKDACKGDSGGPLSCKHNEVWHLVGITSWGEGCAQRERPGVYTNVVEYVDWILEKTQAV
Chain of FXIa (P03951 19-387 partner limits assumed): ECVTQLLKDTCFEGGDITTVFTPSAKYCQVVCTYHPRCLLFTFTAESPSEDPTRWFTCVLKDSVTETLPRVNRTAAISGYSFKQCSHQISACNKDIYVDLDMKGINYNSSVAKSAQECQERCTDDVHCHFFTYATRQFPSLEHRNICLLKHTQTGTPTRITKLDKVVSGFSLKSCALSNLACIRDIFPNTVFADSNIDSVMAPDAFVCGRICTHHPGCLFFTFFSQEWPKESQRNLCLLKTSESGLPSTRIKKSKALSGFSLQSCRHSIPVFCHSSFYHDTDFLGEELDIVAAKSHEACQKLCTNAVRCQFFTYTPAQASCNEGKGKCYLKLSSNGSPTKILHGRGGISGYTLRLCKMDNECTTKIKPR
Chain of Plasmin (P00747 581-810 limits assumed, species assumed): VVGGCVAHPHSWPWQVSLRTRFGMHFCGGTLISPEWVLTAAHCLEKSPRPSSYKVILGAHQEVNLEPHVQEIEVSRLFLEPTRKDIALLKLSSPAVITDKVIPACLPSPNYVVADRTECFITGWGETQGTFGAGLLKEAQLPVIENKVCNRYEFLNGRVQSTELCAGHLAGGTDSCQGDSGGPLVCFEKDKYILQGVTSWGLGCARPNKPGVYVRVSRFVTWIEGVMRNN
Chain of Plasmin (P00747 97-580 partner limits assumed, species assumed): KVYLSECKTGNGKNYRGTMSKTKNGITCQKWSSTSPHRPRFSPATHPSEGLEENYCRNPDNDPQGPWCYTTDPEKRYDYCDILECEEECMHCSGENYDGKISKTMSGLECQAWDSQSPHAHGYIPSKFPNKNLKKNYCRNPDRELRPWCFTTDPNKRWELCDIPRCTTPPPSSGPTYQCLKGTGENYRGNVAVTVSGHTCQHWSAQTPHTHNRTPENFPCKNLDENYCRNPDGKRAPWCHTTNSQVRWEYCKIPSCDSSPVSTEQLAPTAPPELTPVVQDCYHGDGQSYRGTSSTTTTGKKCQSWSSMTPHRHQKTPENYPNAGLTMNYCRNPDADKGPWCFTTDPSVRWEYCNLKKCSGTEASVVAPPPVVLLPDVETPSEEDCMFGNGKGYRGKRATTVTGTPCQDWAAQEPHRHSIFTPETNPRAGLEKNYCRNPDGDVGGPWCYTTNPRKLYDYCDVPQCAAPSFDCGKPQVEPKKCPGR

For the molecule `Cc1cc(N)nc(C)c1CNC(=O)c1cnn(Cc2ccc(Cn3cccn3)cc2)c1` [Compound 11], in series [1], the pIC50 is 8.70.

On to `CC1(C)OB(C(N)c2cccc(Cl)c2)OC1(C)C.Cl` (centres unmarked) [Compound 15a], for which, in series [2], the “Stability in DMSO / aqueous media” value is reported as “unstable over time in DMSO”. Besides, the pIC50 in series [3] (5 min preincubation), in series [3] (60 min preincubation), in series [4] (setting [13]) and in series [4] (setting [14]) was < 3.40 throughout. The “Inhibition of PKa (in words)” value in series [4] was “no activity”.

As to `CC1(C)OB(C(NC(=O)c2cnn(Cc3ccccc3)c2)c2cccc(Cl)c2)OC1(C)C` (centres unmarked) [Compound 17a], the pIC50 in series [3] (5 min preincubation) and in series [3] (60 min preincubation) was < 3.40 throughout.

As to `Cc1ccc(C(NC(=O)c2cnn(Cc3ccccc3)c2)B2OC(C)(C)C(C)(C)O2)c(F)c1` (centres unmarked) [Compound 17b], in series [5], the “Stability of the pinacol boronate in PBS buffer by NMR” value was “rapidly hydrolyzed”. Further, the pIC50 in series [3] (5 min preincubation) and in [3] (60 min preincubation) was < 3.40 each time.

`O=C(NC(B(O)O)c1cccc(Cl)c1)c1cnn(Cc2ccccc2)c1` (centres unmarked) [Compound 18]: the “Stability in DMSO / aqueous media” value in series [2] is “instability in DMSO and aqueous media”. Moreover, the pIC50 in [3] (5 min preincubation), in [3] (60 min preincubation), in series [4] (setting [13]) and in series [4] (setting [14]) was < 3.40 in each case. Moreover, the “Inhibition of FXIIa activity (in words)” value in [3] was “no activity”. In addition, in [4], the “Inhibition of PKa (in words)” value was “no activity”.

Take `CC1(C)OB(C(NC(=O)c2cnn(Cc3ccc(Cn4cccn4)cc3)c2)c2cccc(Cl)c2)OC1(C)C` (centres unmarked) [Compound 19]: the pIC50 in series [6] (1 min preincubation), in series [6] (10 min preincubation), in series [6] (60 min preincubation), in series [7] (setting [15]), in series [7] (setting [16]) and in [7] (setting [17]) was < 4.40 each time. Also, the pIC50 in series [8], in series [8] (setting [18]) and in [8] (setting [19]) was < 4.40 each time.

For `Cc1ccc(C(NC(=O)c2cnn(Cc3ccc(Cn4cccn4)cc3)c2)B2OC(C)(C)C(C)(C)O2)c(F)c1` (centres unmarked) [Compound 20], the pIC50 in [6] (1 min preincubation) was 4.73; in series [6] (10 min preincubation), 4.78; in series [6] (60 min preincubation) it was 4.91; in [10] (1 min preincubation), < 4.40; in series [10] (10 min preincubation), < 4.40; in series [10] (60 min preincubation), < 4.40. The pIC50 in series [7] (setting [15]) is 4.66; in series [7] (setting [16]), 4.70; in series [7] (setting [17]), 4.92; in series [8] it was < 4.40; in series [8] (setting [18]), < 4.40; in series [8] (setting [19]) it was < 4.40. In addition, the pIC50 in series [4] was 9.48; in [4] (setting [20]), 7.18; in series [4] (setting [21]), 8.16; in [4] (setting [14]), 9.52; in series [4] (read-out: PKa IC50, 2 h, extended time course) it was 9.54; in [4] (read-out: PKa IC50, 24 h), 10.15. The “Inhibitor dissociation from PKa” value in [9] was “no apparent reversibility”. Further, in series [3], the “Inhibition of FXIIa activity (in words)” value is “no effect”.

For the molecule `Cc1ccc(C(NC(=O)c2cnn(Cc3ccc(Cn4ccccc4=O)cc3)c2)B2OC(C)(C)C(C)(C)O2)c(F)c1` (centres unmarked) [Compound 21], the pIC50 was 7.03 in series [4] (setting [20]), 7.77 in series [4] (setting [21]) and 8.72 in series [4] (setting [14]).

`O=C(NCc1cccc(Cl)c1)c1cnn(Cc2ccc(Cn3cccn3)cc2)c1` [Compound 24]: the pIC50 in series [6] (1 min preincubation), in series [6] (10 min preincubation), in series [6] (60 min preincubation), in series [10] (1 min preincubation), in [10] (10 min preincubation) and in [10] (60 min preincubation) was < 4.40 each time. The pIC50 in [7] (setting [15]), in [7] (setting [16]), in series [7] (setting [17]), in series [8], in series [8] (setting [18]) and in [8] (setting [19]) was < 4.40 each time. In addition, the pIC50 in series [4] (setting [20]), in [4] (setting [21]) and in series [4] (setting [14]) was < 4.40 in each case. Moreover, in series [9], the “Inhibitor dissociation from PKa” value is reported as “rapid dissociation”. Also, the “Inhibition of PKa (in words)” value in series [4] is “no PKa inhibition”.

Turning to `O=C(NCc1cccc(Cl)c1)c1cnn(Cc2ccc(Cn3ccccc3=O)cc2)c1` [Compound 25], the results for the pIC50 in series [4] (setting [20]), in series [4] (setting [21]) and in [4] (setting [14]) were 6.57, 6.55 and 6.56, respectively.

With `Cc1ccc(CNC(=O)c2cnn(Cc3ccc(Cn4cccn4)cc3)c2)c(F)c1` [Compound 26], the pIC50 in series [6] (1 min preincubation), in [6] (10 min preincubation), in [6] (60 min preincubation), in series [10] (1 min preincubation), in [10] (10 min preincubation) and in series [10] (60 min preincubation) was < 4.40 in each case. In addition, the pIC50 in series [7] (setting [15]), in series [7] (setting [16]), in series [7] (setting [17]), in series [8], in series [8] (setting [18]) and in series [8] (setting [19]) was < 4.40 in each case. For the same molecule, the values for the pIC50 in [4] (setting [20]), in series [4] (setting [21]) and in series [4] (setting [14]) were 6.70, 6.69 and 6.71, respectively. The “Inhibitor dissociation from PKa” value in [9] is “rapid dissociation”.

In the case of `Cc1ccc(CNC(=O)c2cnn(Cc3ccc(Cn4ccccc4=O)cc3)c2)c(F)c1` [Compound 27], the figures for the pIC50 in series [4] (setting [20]), in series [4] (setting [21]) and in series [4] (setting [14]) were 7.43, 7.43 and 7.46, respectively.

In the case of `O=C(/C=C/c1cccc(Cl)c1)c1cnn(Cc2ccc(Cn3cccn3)cc2)c1` [Compound 29], the pIC50 in [4] (setting [20]), in series [4] (setting [21]) and in series [4] (setting [14]) was < 4.40 in each case.

In the case of `CC1(C)OB(C(CC(=O)c2cnn(Cc3ccc(Cn4cccn4)cc3)c2)c2cccc(Cl)c2)OC1(C)C` (centres unmarked) [Compound 31], the pIC50 in series [6] (1 min preincubation), in series [6] (10 min preincubation), in [6] (60 min preincubation), in series [7] (setting [15]), in series [7] (setting [16]) and in series [7] (setting [17]) was < 4.40 in each case. For the same molecule, the pIC50 in [8], in series [8] (setting [18]) and in [8] (setting [19]) was < 4.40 each time.

In the case of `Cc1ccc(C(CC(=O)c2cnn(Cc3ccc(Cn4cccn4)cc3)c2)B2OC(C)(C)C(C)(C)O2)c(F)c1` (centres unmarked) [Compound 32], the pIC50 in [6] (1 min preincubation), in series [6] (10 min preincubation), in series [6] (60 min preincubation), in series [7] (setting [15]), in [7] (setting [16]) and in series [7] (setting [17]) was < 4.40 throughout. Also, the pIC50 in series [8], in [8] (setting [18]) and in series [8] (setting [19]) was < 4.40 in each case.

Turning to `N#Cc1ccc(Oc2ccc3c(c2)COB3O)cc1` [Crisaborole], the pIC50 in series [11] is 6.31.

Regarding `N#Cc1cccc([C@@H](NCC2CC2)c2ccc(F)c(NC(=O)c3cc(C(F)(F)F)nn3-c3cccc(CN)c3)c2)c1` [berotralstat], the “Efficacy as an oral prophylactic for HAE” value in [12] is “efficacious”.

Take “D-Phe-Pro-Arg-chloromethylketone [Compound 23, reference compound]”: the pIC50 was < 4.40 in [6] (1 min preincubation); < 4.40 in series [6] (10 min preincubation); < 4.40 in series [6] (60 min preincubation); 5.44 in series [7] (read-out: Plasmin IC50, 1 min preincubation); 5.91 in series [7] (read-out: Plasmin IC50, 10 min preincubation); 6.61 in series [7] (read-out: Plasmin IC50, 60 min preincubation).
